# Experiment: Solubility to dimethylacetoamide at 25° C., solution then left standing for a night
# Conditions: for solubility to dimethylacetoamide: at 25° C.; for precipitation from the dimethylacetoamide solution on standing: solution left standing for a night
Compound,solubility to dimethylacetoamide,precipitation from the dimethylacetoamide solution on standing
"O=C1OC(=O)c2c(F)c(Oc3c(Cl)c(Cl)c(Oc4c(F)c(F)c5c(c4F)C(=O)OC5=O)c(Cl)c3Cl)c(F)c(F)c21 [Example 1, 1,4-bis(3,4-dicarboxytrifluorophenoxy)tetrachlorobenzene dianhydride]",22 wt. %,precipitations were not found
"Nc1c(F)c(N)c(F)c(Cl)c1F [Example III-1, 5-chloro-2,4,6-trifluoro-m-phenylenediamine]",68 wt. %,precipitations were not found
